Test results from patent US20210161149A1, “METHOD OF CONTROLLING SOIL-BORNE DISEASES OF PLANTS” (NATIONAL AGRICULTURE AND FOOD RESEARCH ORGANIZATION, priority 2018, published 2021).

Key:
[1] = test system: Pythium ultimum strain MAFF425494; experiment: Control of Pythium soil-borne disease in cucumber by a Pseudomonas bacterium combined with an amino acid; assay type: in vivo; settings: for effect on disease control ability of the Pseudomonas bacterium, averaged cucumber weight (FIG. 2): 10 mM amino acid combined with Pseudomonas protegens strain CHA0, n=12 per group
Procedure: The disease control abilities of a Pseudomonas bacterium and glutamic acid against an infectious disease caused by a Pythium (Pythium ultimum strain MAFF425494) as a soil pathogen were investigated using cucumber as a test plant.
(§1) Cucumber seeds were placed on a filter paper moistened with sterile water and left in darkness at 26° C. for 24 hours. Pseudomonas protegens strain CHA0 was used as a Pseudomonas bacterium and incubated with shaking in NYB medium (nutrient broth 25 g, yeast extract 5 g, H2O 1000 mL) under the conditions of 30° C. and 180 rpm for 24 hours. The broth culture of the Pseudomonas bacterium was centrifuged to remove supernatants, and the precipitate was suspended in sterile water to OD600=0.1.
Vermiculite was moistened by adding water. To the vermiculite, coarse cereal crops (millet) previously infected with a Pythium were added as they were, and mixing was done well. 7 g of the coarse cereal crops infected with a Pythium was added to 1 L of the vermiculite. Some portion of the vermiculite was left without adding the coarse cereal crops infected with a Pythium.
(§2) 50 mL of each prepared vermiculite was equally divided into sections (each 5 cm square and 5 cm deep) of a seedling tray with drainage holes at the bottom for water to drain out. Two grains of cucumber seeds observed to have germinated were seeded on each divided vermiculite.
The Pseudomonas bacterium and glutamic acid were applied to cucumber seeds and soils in their vicinity. To be specific, for each section of the seedling tray, 4 mL of the adjusted solution of the Pseudomonas bacterium was applied to cucumber seeds, and 15 mL of the vermiculite left without being infected with a Pythium was placed over the cucumber seeds. The seedling tray was soaked in water or an aqueous solution of 10 mM glutamic acid (L-glutamic acid) (10 mL per seedling tray section) contained in a vat. The applications of the Pseudomonas bacterium and glutamic acid were carried out within 2 hours after the seeding of cucumber seeds. The interval between the timings of applications of the Pseudomonas bacterium and glutamic acid was ensured to be not exceeding 1 hour.
The seedling tray was kept in a plant incubator set at 25° C. The light and dark periods were set to 16 and 8 hours, respectively. The cultivation period in the incubator was set to 2 weeks. Replacement of water or an aqueous solution of 10 mM glutamic acid in a vat was done every other day.
By using the same procedure as in Example 1, the effectiveness of combined use of the Pseudomonas bacterium with each of glutamic acid and histidine was investigated.
For application of histidine, an aqueous solution of 10 mM histidine (L-histidine) was prepared and used instead of the aqueous solution of glutamic acid used in Example 1. The number of cucumbers cultivated was n=12 for each group. After 2 weeks of cultivation, the weights of cucumbers were measured and averaged. Upon measurement of the weights of cucumbers, it was ensured that the vermiculite remaining on the roots of cucumbers was washed away carefully.
The effects of combined use of a Pseudomonas bacterium with other amino acids than histidine were investigated. In this example, not only glutamic acid (Glu), but also the following other amino acids: glutamine (Gln), glycine (Gly), leucine (Leu), phenylalanine (Phe), arginine (Arg), lysine (Lys), valine (Val), isoleucine (Ile) and tryptophane (Trp), were evaluated by using the same procedure as in Example 1. For each of these amino acids, an aqueous solution of 10 mM amino acid was prepared and used. In this example, Pseudomonas protegens strain Cab57 was used as a Pseudomonas bacterium, and all amino acids used were of the L-form.
The number of cucumbers cultivated in this example was n=12 to 18 for each group. As in Example 2, after 2 weeks of cultivation, the weights of cucumbers were measured and averaged. […]

[2] = test system: Rhizoctonia solani strain MAFF726551; experiment: Control of Rhizoctonia soil-borne disease in cucumber by a Pseudomonas bacterium combined with glutamic acid; assay type: in vivo; settings: 10 mM glutamic acid combined with Pseudomonas protegens strain Cab57, 5 days cultivation, n=8 to 12
Procedure: as §1, §2
The Pseudomonas bacterium and glutamic acid were applied to cucumber seeds and soils in their vicinity. […]
In this example, by using the same procedure as in Example 1, 1 g of coarse cereal crops infected with the Rhizoctonia was added to 1 L of vermiculite, instead of 7 g of coarse cereal crops infected with a Pythium. […] As in Example 3, for each of the averaged values of the cucumber weights after cultivation calculated for the different groups, a relative value was determined with respect to the averaged value for the group treated with the Pseudomonas bacterium alone, which was taken as 1.

| Compound | effect of combined use on the soil-borne disease control ability of the Pseudomonas bacterium (photograph, FIG. 1) ([1]; cucumber germinated seeds in vermiculite, 10 mM L-glutamic acid combined with Pseudomonas protegens strain CHA0, 2 weeks cultivation) | effect on disease control ability of the Pseudomonas bacterium, cucumber weight relative to bacterium alone = 1 (FIG. 3) ([1]; cucumber, 10 mM L-amino acid combined with Pseudomonas protegens strain Cab57, 2 weeks, n=12 to 18) | soil-borne disease control ability of glutamic acid itself (FIG. 1) ([1]; cucumber, 10 mM L-glutamic acid alone, no Pseudomonas bacterium, 2 weeks cultivation) | effect on disease control ability of the Pseudomonas bacterium, averaged cucumber weight (FIG. 2) ([1]; cucumber, 2 weeks) | effect on disease control ability of the Pseudomonas bacterium, cucumber weight relative to bacterium alone = 1 (FIG. 4) ([1]; cucumber, 10 mM glutamic acid combined with Pseudomonas sp. strain Os17, 2 weeks, n=17) | effect on soil-borne disease control ability of the Pseudomonas bacterium, cucumber weight relative to bacterium alone = 1 (FIG. 5) [2] |
| --- | --- | --- | --- | --- | --- | --- |
| N[C@@H](CCC(=O)O)C(=O)O [glutamic acid, L-glutamic acid] | enhanced the soil-borne disease control ability of the Pseudomonas bacterium | exhibited a similar effect even on a different strain of Pseudomonas bacterium | seemed not to have a high soil-borne disease control ability | enhanced the disease control ability of the bacterium | exhibited a similar effect | exhibited similar enhancement of soil-borne disease control ability |
| N[C@@H](Cc1c[nH]cn1)C(=O)O [histidine, L-histidine, reference compound] |  |  |  | did not have a capability of enhancing the disease control ability of the Pseudomonas bacterium |  |  |
